Results published in patent US20160362402A1, “NOVEL COMPOUNDS HAVING ANTI-ALLODYNIC AND ANTIHYPERALGESIC ACTIVITY” (CONSORZIO INTERUNIVERSITARIO NAZIONALE PER LA SCIENZA E …, priority 2014, published 2016).

Experiments:
[1] = Compatibility with oxaliplatin in physiological solution (1H NMR, mass spectra); type: physicochemical
primary rat astrocytes = test: Superoxide anion production in primary rat astrocytes incubated with oxaliplatin; type: cell-based; details: oxaliplatin 100 μM alone, 4 hours; control 16.9±0.3 μM
Protocol: FIG. 1. Evaluation of the antioxidant profile of ADM-12 in a rat primary astrocytes cell culture *P<0.01 with respect to the untreated control and ̂P<0.01 with respect to astrocytes treated with oxaliplatin.
The antioxidant profile of ADM-12 also emerges in a cell culture of primary rat astrocytes (FIG. 1). Incubation of cells with the chemotherapic agent oxaliplatin 100 μM induces a significant production of the superoxide anion, which after 4 hours increases from 16.9±0.3 μM of the control to 31.1±2.1 μM; co-treatment with ADM-12 100 μM reduces the production of oxygen free radicals to 21.0±0.4 μM.

SMILES: O=C1[O][Pt]2([NH][C@@H]3CCCC[C@H]3[NH]2)[O]C1=O [oxaliplatin]
- structural integrity when mixed ([1]; ADM-12 and oxaliplatin mixed in physiological solution): remain structurally unaltered
- signal variations at 1H NMR and in mass spectra ([1]; ADM-12 with oxaliplatin in physiological solution, 24 and 48 hours, room temperature and 37° C.): does not show signal variations
- production of the superoxide anion (primary rat astrocytes): 31.1 ± 2.1 µM
